Laboratory results published in ChEMBL document CHEMBL1127830, “A new photoaffinity analog of cGMP: potent inhibitor of cyclic nucleotide phosphodiesterase” (J Med Chem, 1994).

Legend:
[1] = Inhibition of human platelet cAMP phosphodiesterase
[2] = Inhibition of rat bladder dome cGMP phosphodiesterase
[3] = Inhibition of rat bladder dome cAMP phosphodiesterase

IC50 [1]: 3.4 µM | IC50 [2]: 0.3 µM | IC50 [3]: 15.8 µM
SMILES: NC1=NC(=O)C2N=CN([C@@H]3O[C@@H]4COP(=O)(O)O[C@H]4[C@H]3OC(=O)c3ccc(C(=O)c4ccccc4)cc3)C2=N1 (stereo partly drawn)
